How the values were obtained:
[1] = system: iPS cell-derived cardiomyocytes (iCell Cardiomyocytes); assay: Secondary screening: morphometric analysis of iCell Cardiomyocytes; format: cell-based, human; details: for Mean Cardiomyocyte Length: iCell Cardiomyocyte, UT 213.01323
Excerpt: A library of 800 small molecule compounds that can stimulate favorable cardiac adaptation in primary neonatal rat ventricular myocytes (NRVM) was screened. To identify the beneficial modifiers of hypertrophy, the Cellomics Arrayscan High Throughput Screening platform was employed to quantify morphometric features such as, for example, length, width, and length to width ratio from images acquired using a 10× lens for DAPI-labeled nuclei and CY3 labeled α actinin stained cardiomyocytes in a 96 well format. The lead compound was also screened in iPSC derived cardiomyocytes as a part of secondary screening as it offers a physiologically relevant human cell-based model.
(§1) A secondary screening was performed with 10 drugs identified from primary screening for their ability to induce physiological remodeling using morphometric analysis and measuring the levels of B-type natriuretic peptide (BNP), as a surrogate indicator of the hypertrophic response using ELISA. The compounds were selected based on the highly enriched targets identified in the drug set enrichment analysis with a high Z score. Cryopreserved iPS cell-derived cardiomyocytes (“iCell Cardiomyocytes”) obtained from Cellular Dynamics International (CDI, Madison, WI) were used as a cell model to perform the screening.
The cells were plated at a density of 2.5×10^4 cells onto 25 mm diameter fibronectin coated glass coverslips in plating media for 48 hours. The media was replaced with Supplemented William's E (SWE) medium (SWE) media supplemented with cocktail containing penicillin-streptomycin, ITS+(insulin, transferrin, selenium complex, BSA, and linoleic acid), GlutaMAX™, and HEPES (Primary Hepatocyte Maintenance Supplements-GIBCO) for 48 hours. The cells were treated with controls (CT1-40 ng/mL, PE-100 uM) and drugs (AZD1152-HQPA, LY283519) at varying concentrations (2.5, 1, 0.5, and 0.25 uM) for 24 hours.
Post treatments, the cells were washed, fixed and treated with primary antibody, secondary antibody similar to the protocol of Example 3. The effect on the morphometric parameters was assessed using Cellomics Arrayscan Vti HCS reader. The Image acquisition was performed using the Zeiss AxioVision SE64 Imaging software and analyzed using the ImageJ2 software.
iCell cardiomyocytes were seeded at a density of 10,000 cells per well in a 96 well plate format. The cells were maintained as in Example 3 and were treated with controls (hCT1, PE) and drugs (AZD1152-HQPA, LY283519) at four different concentrations for 24 hours. The cells were then fixed and stained with a Actinin for cardiomyocytes followed by nuclear staining with DAPI. The plates were analyzed in Cellomics Arrayscan Vti HCS reader to assess morphometric changes following treatment.

[2] = cited from earlier work
[3] = system: phospho-Histone 3 (Ser10); assay: phospho-Histone 3 (pH3 Ser10) staining in NRVM; format: cell-based, neonatal rat
Method: A one-way ANOVA test performed to assess statistical significance across treatment groups.
The effect of AZD1152-HQPA on cardiac remodeling was further validated using the phospho-Histone 3 (pH3 Ser10) staining which is the downstream target of aurora kinase B. The NRVMs were plated at a density of 2.5×10^4 cells onto 25 mm diameter collagen coated coverslip. The cells were treated with controls (hCT1, PE), AZD1152-HQPA followed by a combination of PE and AZD1152-HQPA.
Post treatment, the cells were washed, fixed, and were subjected to sequential staining of primary antibodies a Actinin and phospho-Histone 3 (Ser10). The images were acquired using the Zeiss AxioVision SE64 Imaging software and analyzed using the ImageJ software. […] The data are represented as Mean±Standard deviation.

aurora kinase B = assay: pAurkB S727 immunofluorescence and remodeling in NRVM; format: cell-based, neonatal rat
Method: Immunofluorescence was performed to validate and assess the effect of aurora B kinase inhibitor on cardiomyocyte remodeling. NRVMs were plated at a density of 2.5×10^4 cells onto 25 mm diameter collagen coated coverslip. Primary cardiomyocytes were incubated with control serum-free medium (Ctrl, SF medium), hCT1 (0.5 nM), PE (100 μM), AZD1152-HQPA (1.5 μM) and assessed for aurora kinase B activation using pAurkB s727 antibody staining. The cells were treated with a combination of PE and AZD1152 HQPA where the cells were stimulated with the drug for 4 hours following the PE treatment for 24 hours.
Post treatment, the cells were washed, fixed, and were subjected to sequential staining of primary antibodies a Actinin and phospho-AurkB (S727). The images were acquired using the Zeiss AxioVision SE64 Imaging software and analyzed using the ImageJ2 software. Immunofluorescence was used to detect α-actinin, pAurkb S727, and nuclei were stained with DAPI.

cardiomyocytes = assay: Overall observation on remodeling of treated cardiomyocytes; format: cell-based
Aurora B = details: role: inhibitor; cited from earlier work
[4] = system: NT Pro-BNP (iCell Cardiomyocyte); assay: NT Pro-BNP ELISA in iCell Cardiomyocyte supernatants; format: cell-based, human; details: 24 hour; for Mean NT Pro-BNP levels: iCell Cardiomyocyte, UT 2407.521
Method: as §1
Pro-NT BNP levels in the culture media were measured following the 24 hour treatment using the Human NT Pro-BNP DuoSet ELISA kit (R&D Systems, Minnesota USA) as per the manufacturer's instruction. […] The plates were read on BMG BioTek Molecular Devices SpectraMax Microplate Reader at 450 nm to obtain the optical density followed by reading at 540 nm for wavelength correction.
Protein levels were identified by plotting a 4 parametric logistic regression curve using the standards provided with the kit.

[5] = system: DOX-induced cardiomyocyte apoptosis and ventricular dysfunction; details: cited from earlier work
[6] = system: streptozotocin (STZ)-induced cardiac dysfunction; details: animal model of diabetic cardiomyopathy; cited from earlier work
CDK4/6 = details: role: inhibitor; cited from earlier work
CDK2 = details: role: inhibitor; cited from earlier work

CCN(CCO)CCCOc1ccc2c(Nc3cc(CC(=O)Nc4cccc(F)c4)[nH]n3)ncnc2c1 [AZD1152-HQPA, AZD1152-hydroxyquinazoline pyrazol anilide]
Mean Cardiomyocyte Length ([1]; drug 0.25 μm, 24 hours): 236 µm | Mean Cardiomyocyte Length ([1]; drug 0.5 μm, 24 hours): 232 µm | Mean Cardiomyocyte Length ([1]; drug 1 μm, 24 hours): 218 µm | Mean Cardiomyocyte Length ([1]; drug 2.5 μm, 24 hours): 223 µm | Eccentric cardiac remodeling ([1]; iCell cardiomyocyte, 1 uM, FIG. 4A): Eccentric cardiac remodeling was observed | cardiomyocyte length compared with CT1 treated cells ([1]; iCell cardiomyocytes on coverslips, 24 hours): comparable cardiomyocyte length | length in iCell cardiomyocyte compared to hCT1 ([1]; iCell cardiomyocytes, 96 well, four concentrations, 24 hours): increased length in iCell cardiomyocyte comparable to length induced by hCT1 | conversion to the active AZD1152-HQPA in plasma [2]: converted rapidly | pH3 activity ([3]; AZD1152-HQPA alone): reduced pH3 activity | pH3 activity ([3]; AZD1152-HQPA in combination with PE treatment): reduced pH3 activity | aurora kinase b activation (aurora kinase B; AZD1152-HQPA 1.5 μM): inhibited aurora kinase b activation | pathological effect of PE (aurora kinase B; drug for 4 hours following PE treatment for 24 hours): able to reverse the pathological effect of PE | cardiomyocyte remodeling (cardiomyocytes): adaptive and compensatory remodeling that resembles a physiologic growth response, adding sarcomeres in series | Aurora B inhibition (Aurora B): strong and selective inhibitor of Aurora B | Mean NT Pro-BNP levels ([4]; drug 0.25 μm): 2100.945 pg/mL | Mean NT Pro-BNP levels ([4]; drug 0.5 μm): 1588.366 pg/mL | Mean NT Pro-BNP levels ([4]; drug 1 μm): 2023.151 pg/mL | Mean NT Pro-BNP levels ([4]; drug 2.5 μm): 2085.823 pg/mL | Pro-NT BNP levels compared to UT and CT1 treated cells ([4]; iCell cardiomyocytes): comparable and/or reduced BNP levels

COc1cccc2c1C(=O)c1c(O)c3c(c(O)c1C2=O)C[C@@](O)(C(=O)CO)C[C@@H]3O[C@H]1C[C@H](N)[C@H](O)[C@H](C)O1 [DOX, doxorubicin]
DOX-induced effect on heart ([5]; CDK2 activation as mechanism): cardiomyocyte apoptosis and ventricular dysfunction

CC(=O)c1c(C)c2cnc(Nc3ccc(N4CCNCC4)cn3)nc2n(C2CCCC2)c1=O [Palbociclib]
effect on streptozotocin (STZ)-induced cardiac dysfunction [6]: inhibiting streptozotocin (STZ)-induced cardiac dysfunction by attenuating maladaptive cardiac remodeling | CDK4/6 inhibition (CDK4/6): CDK4/6 inhibitor

CC[C@H](CO)Nc1nc(NCc2ccccc2)c2ncn(C(C)C)c2n1 [Roscovitine]
cardioprotective effect against DOX ([5]; DOX-associated contractile dysfunction and ventricular remodeling): attenuating myocytes from DOX-associated contractile dysfunction and ventricular remodeling | CDK2 inhibition (CDK2): CDK2 inhibitor
